Source: patent publication US6737383B1, “Herbicidal oxadiazolidines” (priority 1999, dated 2004)

Legend:
velvetleaf = assay: Test B pre/postemergence velvetleaf; type: in vivo, Abutilon theophrasti
Procedure, shortened: (§1)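 Herbicidal effect was estimated by eye on a ten-point control scale after plants spent twelve to sixteen days in a greenhouse following soil or foliar treatment. Foliar sprays targeted plants at one to four leaves; all doses were formulated in a non-phytotoxic solvent with surfactant.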

bedstraw = assay: Test B pre/postemergence bedstraw; type: in vivo, Galium aparine
Procedure, shortened: as §1

wild oat = assay: Test B pre/postemergence wild oat; type: in vivo, Avena fatua
Procedure, shortened: as §1

pigweed = assay: Test B pre/postemergence pigweed; type: in vivo, Amaranthus retroflexus
Procedure, shortened: as §1

surinam grass = assay: Test B pre/postemergence surinam grass; type: in vivo, Brachiaria decumbens
Procedure, shortened: as §1

corn = assay: Test B pre/postemergence corn; type: in vivo, Zea mays
Procedure, shortened: as §1

giant foxtail = assay: Test B pre/postemergence giant foxtail; type: in vivo, Setaria faberii
Procedure, shortened: as §1

crabgrass = assay: Test B pre/postemergence crabgrass; type: in vivo, Digitaria sanguinalis
Procedure, shortened: as §1

purple nutsedge = assay: Test B pre/postemergence purple nutsedge; type: in vivo, Cyperus rotundus
Procedure, shortened: as §1

rice = assay: Test B flood test rice; type: in vivo, Oryza sativa
Procedure, shortened: (§2)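 Plants were grown to the 2-leaf stage before treatment with test chemical, then held in a greenhouse for twelve to sixteen days. Injury was visually rated against untreated controls on a 0–10 scale, where 0 is no effect and 10 is complete control.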

rape = assay: Test B pre/postemergence rape; type: in vivo, Brassica napus
Procedure, shortened: as §1

wheat = assay: Test B pre/postemergence wheat; type: in vivo, Triticum aestivum
Procedure, shortened: as §1

morningglory = assay: Test B pre/postemergence morningglory; type: in vivo, Ipomoea hederacea
Procedure, shortened: as §1

soybean = assay: Test B pre/postemergence soybean; type: in vivo, Glycine max
Procedure, shortened: as §1

duck salad = assay: Test B flood test duck salad; type: in vivo, Heteranthera limosa
Procedure, shortened: as §2

blackgrass = assay: Test B pre/postemergence blackgrass; type: in vivo, Alopecurus myosuroides
Procedure, shortened: as §1

[1] = Postemergence, Rate 62 g/ha, scale 0 to 10, 0 is no effect, 10 is complete control
[2] = Postemergence, Rate 250 g/ha, scale 0 to 10, 0 no effect, 10 complete control
[3] = Preemergence, Rate 62 g/ha, scale 0 to 10, 0 is no effect, 10 is complete control
[4] = Preemergence, Rate 125 g/ha, scale 0 to 10 (0 no effect, 10 complete control)
[5] = Preemergence, Rate 250 g/ha, scale of 0 to 10 where 0 is no effect and 10 is complete control
[6] = Preemergence, Rate 500 g/ha, scale 0 (no effect) to 10 (complete control)
[7] = Rate 125 g/ha, Postemergence, scale 0 to 10, 0 no effect, 10 complete control
[8] = Rate 500 g/ha, Postemergence, 0 to 10 scale (0 no effect, 10 complete control)
[9] = Rate 125 g/ha, Postemergence section (flood test species), scale 0 to 10, 0 no effect, 10 complete control
[10] = Rate 500 g/ha, Postemergence section of Table B, 0 to 10 scale (0 no effect, 10 complete control)
[11] = flood test, listed under Postemergence, Rate 250 g/ha, scale 0 to 10, 0 no effect, 10 complete control

In the case of `CCN(CC)C(=O)n1oc(=O)n(-c2cc(Cl)cc(Cl)c2)c1=O` [Compound 11], the “Velvetleaf plant response rating” value (velvetleaf; [1]) is reported as 0, the “Velvetleaf plant response rating” value (velvetleaf; [2]) is reported as 0 and the “Plant response rating, Velvetleaf” value (velvetleaf; [3]) is reported as 0. The “Plant response rating, Velvetleaf” value (velvetleaf; [4]) was 0, the “Plant response rating, Velvetleaf” value (velvetleaf; [5]) was 0 and the “Velvetleaf plant response rating” value (velvetleaf; [6]) was 0. The “Velvetleaf plant response rating” value (velvetleaf; [7]) was 0, the “Bedstraw plant response rating” value (bedstraw; [1]) was 0 and the “Bedstraw plant response rating” value (bedstraw; [2]) was 0. The “Plant response rating, Bedstraw” value (bedstraw; [3]) was 0, the “Plant response rating, Bedstraw” value (bedstraw; [4]) was 0 and the “Plant response rating, Bedstraw” value (bedstraw; [5]) was 0. The “Bedstraw plant response rating” value (bedstraw; [6]) was 0, the “Bedstraw plant response rating” value (bedstraw; [7]) was 0 and the “Bedstraw plant response rating” value (bedstraw; [8]) was 0. The “Wild oats plant response rating” value (wild oat; [1]) was 0, the “Wild oats plant response rating” value (wild oat; [2]) was 0 and the “Plant response rating, Wild oats” value (wild oat; [4]) was 0. For the same molecule, the “Plant response rating, Wild oats” value (wild oat; [5]) was 0, the “Wild oats plant response rating” value (wild oat; [6]) was 0 and the “Wild oats plant response rating” value (wild oat; [7]) was 0. The “Redroot pigweed plant response rating” value (pigweed; [1]) was 0, the “Redroot pigweed plant response rating” value (pigweed; [2]) was 0 and the “Plant response rating, Redroot pigweed” value (pigweed; [3]) was 0. For the same molecule, the “Plant response rating, Redroot pigweed” value (pigweed; [4]) was 0, the “Plant response rating, Redroot pigweed” value (pigweed; [5]) was 0 and the “Redroot pigweed plant response rating” value (pigweed; [6]) was 0. For the same molecule, the “Redroot pigweed plant response rating” value (pigweed; [7]) was 0, the “Redroot pigweed plant response rating” value (pigweed; [8]) was 0 and the “B. signalgrass plant response rating” value (surinam grass; [1]) was 0. For the same molecule, the “B. signalgrass plant response rating” value (surinam grass; [2]) was 0, the “Plant response rating, B. signalgrass” value (surinam grass; [3]) was 0 and the “Plant response rating, B. signalgrass” value (surinam grass; [4]) was 0. For the same molecule, the “Plant response rating, B. signalgrass” value (surinam grass; [5]) was 0, the “B. signalgrass plant response rating” value (surinam grass; [6]) was 0 and the “B. signalgrass plant response rating” value (surinam grass; [7]) was 0. For the same molecule, the “B. signalgrass plant response rating” value (surinam grass; [8]) was 0, the “Corn plant response rating” value (corn; [1]) was 0 and the “Corn plant response rating” value (corn; [2]) was 0. The “Plant response rating, Corn” value (corn; [3]) was 0, the “Plant response rating, Corn” value (corn; [4]) was 0 and the “Plant response rating, Corn” value (corn; [5]) was 0. For the same molecule, the “Corn plant response rating” value (corn; [6]) was 0, the “Corn plant response rating” value (corn; [7]) was 0 and the “Corn plant response rating” value (corn; [8]) was 0. For the same molecule, the “Giant foxtail plant response rating” value (giant foxtail; [1]) was 0, the “Giant foxtail plant response rating” value (giant foxtail; [2]) was 0 and the “Plant response rating, Giant foxtail” value (giant foxtail; [3]) was 0. The “Plant response rating, Giant foxtail” value (giant foxtail; [4]) was 0, the “Plant response rating, Giant foxtail” value (giant foxtail; [5]) was 0 and the “Giant foxtail plant response rating” value (giant foxtail; [6]) was 3. The “Giant foxtail plant response rating” value (giant foxtail; [7]) was 0, the “Giant foxtail plant response rating” value (giant foxtail; [8]) was 0 and the “Crabgrass plant response rating” value (crabgrass; [1]) was 0. For the same molecule, the “Crabgrass plant response rating” value (crabgrass; [2]) was 0, the “Plant response rating, Crabgrass” value (crabgrass; [3]) was 0 and the “Plant response rating, Crabgrass” value (crabgrass; [4]) was 0. The “Plant response rating, Crabgrass” value (crabgrass; [5]) was 0, the “Crabgrass plant response rating” value (crabgrass; [6]) was 8 and the “Crabgrass plant response rating” value (crabgrass; [7]) was 0. The “Crabgrass plant response rating” value (crabgrass; [8]) was 0, the “Nutsedge plant response rating” value (purple nutsedge; [1]) was 0 and the “Nutsedge plant response rating” value (purple nutsedge; [2]) was 0. The “Plant response rating, Nutsedge” value (purple nutsedge; [3]) was 0, the “Plant response rating, Nutsedge” value (purple nutsedge; [4]) was 0 and the “Plant response rating, Nutsedge” value (purple nutsedge; [5]) was 0. For the same molecule, the “Nutsedge plant response rating” value (purple nutsedge; [6]) was 0, the “Nutsedge plant response rating” value (purple nutsedge; [7]) was 0 and the “Nutsedge plant response rating” value (purple nutsedge; [8]) was 0. For the same molecule, the “Rice plant response rating” value (rice; [1]) was 0, the “Rice plant response rating” value (rice; [9]) was 0 and the “Rice plant response rating” value (rice; [10]) was 0. For the same molecule, the “Rice plant response rating” value (rice; [11]) was 0, the “Rape plant response rating” value (rape; [1]) was 0 and the “Rape plant response rating” value (rape; [2]) was 0. The “Plant response rating, Rape” value (rape; [3]) was 0, the “Plant response rating, Rape” value (rape; [4]) was 0 and the “Plant response rating, Rape” value (rape; [5]) was 0. The “Rape plant response rating” value (rape; [6]) was 0, the “Rape plant response rating” value (rape; [7]) was 0 and the “Rape plant response rating” value (rape; [8]) was 0. For the same molecule, the “Wheat plant response rating” value (wheat; [1]) was 0, the “Wheat plant response rating” value (wheat; [2]) was 0 and the “Plant response rating, Wheat” value (wheat; [3]) was 0. The “Plant response rating, Wheat” value (wheat; [4]) was 0, the “Plant response rating, Wheat” value (wheat; [5]) was 0 and the “Wheat plant response rating” value (wheat; [6]) was 0. For the same molecule, the “Wheat plant response rating” value (wheat; [7]) was 0, the “Morningglory plant response rating” value (morningglory; [1]) was 0 and the “Morningglory plant response rating” value (morningglory; [2]) was 0. The “Plant response rating, Morningglory” value (morningglory; [3]) was 0, the “Plant response rating, Morningglory” value (morningglory; [4]) was 0 and the “Plant response rating, Morningglory” value (morningglory; [5]) was 0. The “Morningglory plant response rating” value (morningglory; [6]) was 0, the “Morningglory plant response rating” value (morningglory; [7]) was 0 and the “Morningglory plant response rating” value (morningglory; [8]) was 0. For the same molecule, the “Soybean plant response rating” value (soybean; [1]) was 0, the “Soybean plant response rating” value (soybean; [2]) was 0 and the “Plant response rating, Soybean” value (soybean; [3]) was 0. The “Plant response rating, Soybean” value (soybean; [4]) was 0, the “Plant response rating, Soybean” value (soybean; [5]) was 0 and the “Soybean plant response rating” value (soybean; [6]) was 0. The “Soybean plant response rating” value (soybean; [7]) was 0, the “Ducksalad plant response rating” value (duck salad; [1]) was 0 and the “Ducksalad plant response rating” value (duck salad; [9]) was 0. The “Ducksalad plant response rating” value (duck salad; [10]) was 0, the “Ducksalad plant response rating” value (duck salad; [11]) was 0 and the “Blackgrass plant response rating” value (blackgrass; [1]) was 0. The “Blackgrass plant response rating” value (blackgrass; [2]) was 0, the “Plant response rating, Blackgrass” value (blackgrass; [3]) was 0 and the “Plant response rating, Blackgrass” value (blackgrass; [4]) was 0. The “Plant response rating, Blackgrass” value (blackgrass; [5]) was 0, the “Blackgrass plant response rating” value (blackgrass; [6]) was 0 and the “Blackgrass plant response rating” value (blackgrass; [7]) was 0. The “Blackgrass plant response rating” value (blackgrass; [8]) was 0.
